Where “and” joins values, the source holds several entries; their conditions need not be identical. Identical values can stand only once. Entries after “also recorded” stand apart in the source; their conditions may differ.
Legend:
[1] = in words; cited from earlier work
[2] = acute toxicity, evaluated 100 to 1600 mg/Kg (Miura et al); cited from earlier work
[3] = Urinary excretion after i.p. injection (metabolic assay); assay type: in vivo, mice; settings: 5.2 mg/mouse
Protocol: Fifteen mice randomly divided into three groups of five were injected i.p. with a test agent (300 mg/kg) dissolved in N saline solution. Group 1 were injected with 4-S-CAP, group 2 with N-Ac-4-S-CAP, group 3 were controls. The mice are kept in metabolic cages; their urine is collected 3, 8 and 24 hr after injection, and the 4-S-CAP and N-Ac-4-S-CAP content is measured by HPLC in a system consisting of a Waters 600E liquid chromatography, with a Bondapak C18 column (3.0×300 mm; particle size, 10 μm) and a Waters 460 electrochemical detector. Mobile phase: 0.1M potassium phosphate buffer, pH 2.1, containing 0.1 mM Na2 EDTA methanol, 80:20 (v/v); column temperature, 60° C.; flow rate 1.0 ml/min. Urine samples are hydrolysed with 0.1M HCl before assay, and the phenols are detected at 850 mV against an Ag/AgCl reference electrode.

[4] = tested on: B16 melanoma; assay: In vivo growth inhibition of s.c. inoculated B16 melanoma; design: species or system mouse; settings: for % Gi (growth inhibition): 200 mg/Kg
Protocol: Briefly, excised tumours were homogenized in normal saline.
The in vivo antimelanoma effect of the compounds were evaluated by percent growth inhibition of inoculated tumour (% g.i.). The percent g.i. was computed from the mean tumour volume at day 12 or 13 of the experiments; i.e., 100× (1- treated group/control group). Tumour volume was calculated by the following formula:
tumour volume=long axis×(short axis)^2 ×1/2.

[5] = tested on: follicular melanocytes; settings: in words; cited from earlier work
[6] = in vivo; settings: mouse, ip
Protocol: 3:1-85 1972. In accordance with this Protocol, ten to fifteen mice were used in each test group. They were weighed and randomized at day one after s.c. inoculation of B16 melanoma cells. From day five, the phenolic melanin precursors were administered i.p. daily for nine days. The test compounds were dissolved in normal saline, and sterilized by heating to 100° C. for 2 minutes. […] They were administered j.p. with the following doses: 400 mg/Kg - 4-S-CAP; 200 to 300 mg/Kg - 4-S-CAP; and 200 to 1200 mg/Kg - N-Ac-4-S-CAP. A catalytic amount of L-dopa, 25 mg/Kg and antidecarboxylase, carbidopa, 400 mg/Kg, were also administered. Carbidopa was given one hour prior to L-dopa administration. DTIC (NSC 4538) was used as a control drug at a dose of 60 mg/Kg. Acute toxicity of 4-S-CP and 4-S-CAP was evaluated from 100 to 1600 mg/Kg.
The B16 mouse melanoma was maintained by s.c. inoculation of tumour cells into the back of C57BL7J mice (5 to 6 weeks, female). […] Briefly, excised tumours were homogenized in normal saline. The homogenized tumour cells were then passed through a sterile 80 mesh stainless steel screen, washed with normal saline, centrifuged (500 g. for 10 minutes) and resuspended in normal saline. Suspensions of viable melanoma cells at the concentration of 1×10^6 per 0.1 ml were inoculated s.c. into both the right and left inguinal areas of C57BL/6J mice (female, 5 to 6 weeks old, 18 to 20 gm).

[7] = tested on: mushroom tyrosinase; assay: Enzyme kinetics for tyrosinase; assay type: biochemical
Protocol: (§1) Mushroom tyrosinase (400 units/mg) and plasma MAO (1000 units/gm) were obtained from Sigma Chemical Co. (St. Louis, Mo., USA). A reaction mixture consisted of a substrate of 7 to 8 different concentrations (40 to 500 μM for mushroom tyrosinase and 20 to 200 μM for MAO) and of either mushroom tyrosinase (2.5 μg) or MAO (10 μg) in 1.0 mL of 0.05M sodium phosphate buffer, pH 6.8 and 7.4 respectively. The reactions were carried out at 37° C. in a shaking water bath, and stopped by taking 100 μL of the reaction mixture and adding it to 900 μL of 0.4M HCLO4. The disappearance of substrate was followed using HPLC (high pressure liquid chromatography) Km and Vmax values were calculated from the Lineweaver-Burk plots.
^a mushroom tyrosinase; 11 unit/ml of tyrosinase was used. One enzyme
unit will cause an increase in A280 of 0.001 per min at pH 6.8 at
25° C. using Ltyrosine as substrate.

[8] = tested on: black hair follicles; assay: Depigmentation of new hair (eumelanin/PTCA content); assay type: in vivo, C57BL/6J black mice
Protocol: Female progeny were used in this testing when approximately 8 weeks old and weighing 17 grams.
Thirty mice were randomized into 6 groups of 5 (1 control and 1 for each compound). Starting on day 1, daily for 14 days the agent was injected i.p. or was infiltrated s.c. in an area where hair follicles had been plucked; the dose was 300 mg/kg body weight.
In the same 30 mice, hair follicles were harvested on day 22 (early telogen phase) and their eumelanin content analyzed. […] Briefly, a 10-mg hair sample is homogenized in water at a concentration of 10 mg/ml; the 200-μl homogenate is transferred to a screw-capped test tube, mixed with 1M H2 SO4 (800 μL) and oxidized with 3% KMnO4. The product, pyrrole-2,3,5-tricarboxylic acid (PTCA), is analyzed by HPLC with a UVL detector; samples are measured in duplicate. The eumelanin content is expressed as PTCA (ng/mg) against the PCTA content of BALB/c albino mice as control (≤10 ng/mg, the background value with our method, in which 1 ng corresponds roughly to a eumelanin content of 50 ng), and the degree of depigmentation is expressed as a percentage: (PTCA content of control sample minus PTCA content of experimental sample)/(PCTA content of control sample)×100.

[9] = tested on: melanoma; settings: in words; cited from earlier work
[10] = tested on: B16F10 melanoma colonies; assay: Melanoma-colony formation in the lungs; assay type: in vivo, mouse
Protocol: Murine B16F10 melanoma cell line with a strong metastatic property to form tumour colonies in the lungs was obtained from Dr. Longenecker, Department of Immunology, University of Alberta. Such cell line is well recognized and readily available as reported in Miura et al, supra. The cells were grown in T-75 flasks in dulbecco's MEM available from Gipco Lab Inc., Grand Island, N.Y., supplemented with 10% fetal calf serum, also obtained from Gipco, penicillin (100 μ/ml) and streptomycin (100 μg/ml). The cells were incubated at 37° C. in humidified atmosphere of 5% CO2 in air. […] Viable cells were identified by trypan blue dye exclusion and counted. The cell suspension was diluted to the desired concentration. […] On day zero, the mice were inoculated via the lateral tail vein with 5×10^4 cells in 0.2 ml of N saline. The test drugs were dissolved in normal saline, sterilized by membrane filtration, and administered in a dose of 300 mg/Kg (4 -S-CAP) or 900 mg/Kg (N-Ac-4-S-CAP); starting on day five, the control solution or drug was injected i.p. daily for 14 days. On day 26, the mice were killed by cervical dislocation, their lungs were removed, and the number of melanoma colonies was counted under a dissecting microscope. The results were expressed as percentage reduction in the number of colonies: [a-b/a]×100, where a=colonies in control group and b=colonies in experimental group.

[11] = tested on: plasma monoamine oxidase (MAO); assay: Enzyme kinetics for monoamineoxidase (plasma MAO); assay type: biochemical
Protocol: as §1

[12] = s.c., 300 mg/kg daily for 14 days, hair day 22

NCCSc1ccc(O)cc1 [4-S-CAP, 4-S-cysteaminylphenol, reference compound]
Hypotensive effect [1]: hypotensive | Lethal dose [2]: 400 mg/kg | Urinary excretion of unchanged compound, amount ([3]; 3 h after i.p. injection): 0.399 ± 0.018 mg | Urinary excretion of unchanged compound, amount ([3]; 8 h after i.p. injection): 0.443 ± 0.023 mg | Urinary excretion of unchanged compound, amount ([3]; 24 h after i.p. injection): 0.458 ± 0.021 mg | dose excreted at 3 h ([3]; urine, ip, 300 mg/kg, 3 h after i.p. injection, read-out: Urinary excretion of unchanged compound, % of dose): 7.7% | dose excreted at 8 h ([3]; urine, ip, 300 mg/kg, 8 h after i.p. injection, read-out: Urinary excretion of unchanged compound, % of dose): 8.5% | dose excreted at 24 h ([3]; urine, ip, 300 mg/kg, 24 h after i.p. injection, read-out: Urinary excretion of unchanged compound, % of dose): 8.8% | % Gi (growth inhibition) ([4]; Experiment I): 54.0% | % Gi (growth inhibition) ([4]; Experiment II): 25.1% | Growth inhibition of B16 melanoma ([4]; in words): greater anti-melanoma effect at 200 mg/Kg than N-Ac-4-S-CAP | Effect on albino follicles [5]: no effect on the albino follicles | Effect on black hair follicles / black hair [5]: demonstrated cytotoxicity in the depigmentation of black hair follicles; also recorded: depigmentation of black hair as manifested by loss of functioning melanocytes | MTD [6]: 200 to 300 mg/kg | Substrate for tyrosinase ([7]; in words): substrate for both plasma MAO and tyrosinase | Km ([7]; mushroom tyrosinase, pH 6.8, 37° C.): 117 µM | Depigmentation ([8]; i.p., 300 mg/kg daily for 14 days, hair day 22): 87% | Depigmentation of new growth of black hair follicles ([8]; in words): i.p. administration induced more depigmentation than s.c. | Depigmentation [8, 12]: 47% | PTCA Content [8, 12]: 458.3 ± 107.6 ng/mg | Inhibition of melanoma growth [9]: exhibited inhibition of melanoma growth | Prolonging lifespan of melanoma-bearing mice [9]: potent agent in prolonging the lifespan of melanoma-bearing mice | Colonies, % control ([10]; 300 mg/kg i.p. daily for 14 days, day 26): 32.4% and 30% | Number of B16F10 melanoma colonies ([10]; in words): significantly reduced | Substrate for plasma MAO ([11]; in words): substrate for both plasma MAO and tyrosinase | Km ([11]; plasma MAO, pH 7.4, 37° C.): 52.6 µM

From patent US5395611A, “Phenolic amine depigmenting and antimelanoma agents” (The Governors of the University of Alberta, priority 1992, dated 1995)
